Columns and labels:
[1] = target: mutEGFR (D770_N771insNPG, T790); experiment: mutEGFR (D770_N771insNPG, T790) kinase assay; assay type: biochemical, human
[2] = target: mutEGFR (D770_N771insSVD) (Homo sapiens, UniProt P00533, INS767SVD); experiment: Exon20-mutant-EGFR (D770_N771insSVD) TR-FRET kinase assay; assay type: biochemical; details: 2 mM ATP, 15 min preincubation
From the text: Inhibitory activity of compounds of the present invention against an Epidermal Growth Factor Receptor (EGFR) with an insertion of the amino acids sequence SVD between D770 and N771 (SEQ ID No. 5) was quantified employing the TR-FRET based kinase activity assay as described in the following paragraphs.
A recombinant fusion protein of N-terminal Glutathion-S-Transferase (GST) and a fragment of human EGFR variant (amino acids R669 to A1210 with insertion of the amino acids sequence SVD between D770 and N771 (SEQ ID No. 5) (“EGFR ins SVD”), expressed in Sf9 insect cells and purified via affinity chromatography using Glutathion Sepharose as described above, was used as a kinase. As substrate for the kinase reaction the biotinylated peptide biotin-Ahx-AEEEEYFELVAKKK (C-terminus in amide form) (SEQ ID No. 6) was used which can be purchased e.g. form the company Biosynthan GmbH (Berlin-Buch, Germany).
For the assay 50 nl of a 100-fold concentrated solution of the test compound in DMSO was pipetted into either a black low volume 384 well microtiter plate or a black 1536 well microtiter plate (both Greiner Bio-One, Frickenhausen, Germany), 2 μl of a solution of EGFR in aqueous assay buffer [50 mM Hepes pH 7.0, 10 mM MgCl2, 1 mM dithiothreitol, 0.5 mM EGTA, 0.3 mM activated sodium ortho-vanadate, 0.005% (w/v) bovine serum albumin, 0.005% (v/v) Tween-20] were added and the mixture was incubated for 15 min at 22° C. to allow pre binding of the test compounds to the enzyme before the start of the kinase reaction. […] The concentration of EGFR was adjusted depending of the activity of the enzyme lot and was chosen appropriate to have the assay in the linear range, typical concentration was 15 pg/μl. The reaction was stopped by the addition of 3 μl of a solution of HTRF detection reagents (83.3 nM streptavidine-XL665 [Cisbio Bioassays, Codolet, France] and 1.67 nM PT66-Tb-Cryptate, a terbium-cryptate labelled anti-phospho-tyrosine antibody from Cisbio Bioassays [instead of the PT66 Tb cryptate PT66 Eu Chelate from Perkin Elmer can also be used]) in an aqueous EDTA-solution (133.3 mM EDTA, 0.2% (w/v) bovine serum albumin in 50 mM HEPES pH 7.5).
The resulting mixture was incubated 1 h at 22° C. to allow the binding of the biotinylated phosphorylated peptide to the streptavidine-XL665 and the PT66-Tb-Cryptate. Subsequently, the amount of phosphorylated substrate was evaluated by measurement of the resonance energy transfer from the PT66-Tb-Cryptate to the streptavidine-XL665. Therefore, the fluorescence emissions at 620 nm and 665 nm after excitation at 337 nm were measured in a HTRF reader, e.g. a Pherastar (BMG Labtechnologies, Offenburg, Germany) or a Viewlux (Perkin-Elmer). The ratio of the emissions at 665 nm and at […] was taken as the measure for the amount of phosphorylated substrate. The data were normalised (enzyme reaction without inhibitor=0% inhibition, all other assay components but no enzyme=100% inhibition).

[3] = tested on: BA/F3 (insSVD) cells; experiment: Ba/F3 cell survival assay (Cell Titer-Glo), EGFR-insSVD; assay type: cell-based; details: without IL-3, with EGF
Procedure: 293T cells from ATCC were transfected with pBABEpuro expression constructs for WT EGFR or EGFR-insSVD, or EGFR-insSVD T790M, and pCL-Eco packaging vector using Fugene-6 transfection reagent from Promega. Plates were incubated at 37° C. for 48 h. Retrovirus was harvested by filtering the media supernatant through a 0.45 μm filter.
Ba/F3 cells purchased from DSMZ were grown in RPMI+10% FBS+10 ng/mL IL-3 and infected with filtered retroviral supernatant at a 1:2 dilution. Polybrene was added to a concentration of 8 μg/mL, plates were spun for 90 min, and incubated for 16 h at 37° C. 2 μg/mL puromycin was added to the infected cells 24 h after infection and cells were continually grown in the presence of puromycin and 10 ng/mL IL-3. Following stably expressing Ba/F3 cell lines were generated: Ba/F3-EGFR-WT, Ba/F3-EGFR-insSVD, Ba/F3-EGFR-insSVD T790M, (Ba/F3-vector-control).
For cell survival assays, Ba/F3 cells were grown to a density of 1-2 million cells per mL, spun down and resuspended in media without IL-3, and replated at a concentration of 200,000-500,000 cells per mL. The cells ectopically expressing WT EGFR, EGFR-insSVD, or EGFR-insSVD T790M were plated with 10 ng/mL Millipore Culture grade EGF. The cells ectopically expressing pBABEpuro empty vector were plated with 10 ng/mL IL-3.
2 days later, cells were plated in 50 μL in a 384 well plate at a concentration of 4000 cells per well for cells assayed in the absence of IL-3 and 2000 cells per well for cells assayed in the presence of IL-3. 100 nL of compound was added to each well using a 100 nL pin head, and plates were incubated at 37° C. for 48 h.
Cell viability was measured by adding 20 μL of Cell Titer-Glo Luminescent Cell Viability Reagent diluted 1:3 in PBS. Plates were sealed with Perkin Elmer Top-Seal, inverted several times to mix, and immediately centrifuged at 1000 rpm for 2 min. Plates were incubated in low light conditions for 8-10 min and luminescence was measured.

mutEGFR (D770_N771insNPG, T790), sequence (P00533 with tags, fused parts or gaps INS770NPG limits assumed): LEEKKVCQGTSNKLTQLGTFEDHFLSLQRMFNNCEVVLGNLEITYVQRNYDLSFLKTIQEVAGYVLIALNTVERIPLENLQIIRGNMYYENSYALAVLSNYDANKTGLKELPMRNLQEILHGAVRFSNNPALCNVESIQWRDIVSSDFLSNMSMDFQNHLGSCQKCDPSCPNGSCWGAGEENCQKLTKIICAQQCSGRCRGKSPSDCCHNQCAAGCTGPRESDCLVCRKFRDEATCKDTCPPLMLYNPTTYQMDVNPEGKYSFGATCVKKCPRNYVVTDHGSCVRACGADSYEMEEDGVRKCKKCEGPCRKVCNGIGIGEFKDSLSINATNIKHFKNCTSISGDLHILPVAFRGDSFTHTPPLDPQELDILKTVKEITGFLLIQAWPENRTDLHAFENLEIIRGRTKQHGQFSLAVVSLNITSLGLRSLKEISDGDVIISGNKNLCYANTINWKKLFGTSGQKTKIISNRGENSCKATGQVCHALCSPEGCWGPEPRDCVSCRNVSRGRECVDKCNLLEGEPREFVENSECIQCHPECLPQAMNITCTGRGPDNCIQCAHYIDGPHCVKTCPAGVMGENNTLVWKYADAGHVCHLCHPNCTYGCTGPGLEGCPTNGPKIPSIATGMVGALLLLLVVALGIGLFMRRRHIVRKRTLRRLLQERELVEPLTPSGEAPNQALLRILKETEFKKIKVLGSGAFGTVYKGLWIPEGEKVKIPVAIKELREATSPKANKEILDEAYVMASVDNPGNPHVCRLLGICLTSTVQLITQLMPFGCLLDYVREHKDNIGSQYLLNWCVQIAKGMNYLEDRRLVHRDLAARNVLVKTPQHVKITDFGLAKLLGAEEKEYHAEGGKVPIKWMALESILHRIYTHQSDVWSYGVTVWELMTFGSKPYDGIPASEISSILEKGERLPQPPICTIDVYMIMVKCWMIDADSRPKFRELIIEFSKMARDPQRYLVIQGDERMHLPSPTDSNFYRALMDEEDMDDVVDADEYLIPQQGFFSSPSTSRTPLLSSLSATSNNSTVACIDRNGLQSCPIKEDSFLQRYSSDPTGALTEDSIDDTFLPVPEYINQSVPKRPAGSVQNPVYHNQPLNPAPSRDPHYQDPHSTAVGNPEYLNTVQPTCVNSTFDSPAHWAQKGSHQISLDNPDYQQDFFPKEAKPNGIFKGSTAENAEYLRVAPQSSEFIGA
mutEGFR (D770_N771insSVD), sequence (P00533 with tags, fused parts or gaps INS767SVD limits assumed): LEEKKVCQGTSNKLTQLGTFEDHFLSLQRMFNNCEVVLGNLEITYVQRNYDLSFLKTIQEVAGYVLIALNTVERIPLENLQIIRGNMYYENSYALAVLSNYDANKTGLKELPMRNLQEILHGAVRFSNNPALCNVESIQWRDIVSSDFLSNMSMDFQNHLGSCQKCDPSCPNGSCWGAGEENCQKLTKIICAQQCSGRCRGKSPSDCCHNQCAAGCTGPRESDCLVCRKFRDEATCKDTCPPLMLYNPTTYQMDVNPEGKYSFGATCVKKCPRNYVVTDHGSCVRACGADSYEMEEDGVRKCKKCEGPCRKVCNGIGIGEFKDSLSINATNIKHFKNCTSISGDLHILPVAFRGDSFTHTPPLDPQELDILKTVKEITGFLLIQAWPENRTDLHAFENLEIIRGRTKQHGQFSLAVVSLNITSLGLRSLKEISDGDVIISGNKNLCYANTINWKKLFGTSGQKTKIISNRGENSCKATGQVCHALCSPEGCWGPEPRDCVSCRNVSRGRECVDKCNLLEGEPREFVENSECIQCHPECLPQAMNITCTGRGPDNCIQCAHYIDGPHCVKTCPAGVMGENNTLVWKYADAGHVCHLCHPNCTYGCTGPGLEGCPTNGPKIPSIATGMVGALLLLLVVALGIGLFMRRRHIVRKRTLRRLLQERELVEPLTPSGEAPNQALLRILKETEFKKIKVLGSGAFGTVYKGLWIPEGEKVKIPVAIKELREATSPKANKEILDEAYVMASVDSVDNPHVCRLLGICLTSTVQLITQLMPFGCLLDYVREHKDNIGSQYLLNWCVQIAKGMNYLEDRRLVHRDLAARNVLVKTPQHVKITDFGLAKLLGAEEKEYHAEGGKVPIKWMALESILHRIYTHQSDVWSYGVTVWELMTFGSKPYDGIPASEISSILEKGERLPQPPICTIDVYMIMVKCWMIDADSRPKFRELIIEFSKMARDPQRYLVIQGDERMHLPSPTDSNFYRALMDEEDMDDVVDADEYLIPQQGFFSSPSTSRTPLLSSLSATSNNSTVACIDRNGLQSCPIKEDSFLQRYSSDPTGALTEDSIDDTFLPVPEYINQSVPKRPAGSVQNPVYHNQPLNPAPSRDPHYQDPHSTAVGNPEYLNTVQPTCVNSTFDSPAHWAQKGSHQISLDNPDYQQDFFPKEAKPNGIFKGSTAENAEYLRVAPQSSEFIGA

Compound `C=CC(=O)N1CCC[C@H]1COc1cncc(F)c1-c1[nH]c2cccnc2c1-c1ccccc1` [Example 109, 1-[(2S)-2-({[5-fluoro-4-(3-phenyl-1H-pyrrolo[3,2-b]pyridin-2-yl)pyridin-3-yl]oxy}methyl)pyrrolidin-1-yl]prop-2-en-1-one] has an IC50 [1] of 83.7 nM, an IC50 [2] of 0.573 nM and an IC50 ([3]; Mus musculus, BaF3, 48 h) of 46.6 nM.
For `C=CS(=O)(=O)N(C)CCOc1cnccc1-c1[nH]c2cccnc2c1-c1cc(OC)ccc1F` [Example 73, N-[2-({4-[3-(2-fluoro-5-methoxyphenyl)-1H-pyrrolo[3,2-b]pyridin-2-yl]pyridin-3-yl}oxy)ethyl]-N-methylethenesulfonamide], the IC50 [1] was 27.9 nM, the IC50 [2] was 8.7 nM and the IC50 ([3]; Mus musculus, BaF3, 48 h) was 555 nM.
In the case of `C=CC(=O)N1CCC(Oc2cnccc2-c2[nH]c3cccnc3c2-c2cccc(Cl)c2)C1` (racemic) [Example 119, 1-[(3RS)-3-({4-[3-(3-chlorophenyl)-1H-pyrrolo[3,2-b]pyridin-2-yl]pyridin-3-yl}oxy)pyrrolidin-1-yl]prop-2-en-1-one], the IC50 [1] is reported as 58 nM, the IC50 [2] is reported as 14 nM and the IC50 ([3]; Mus musculus, BaF3, 48 h) is reported as 549 nM.
With `C=CC(=O)N(C)CCOc1cnccc1-c1[nH]c2cccnc2c1-c1cc(F)ccc1F` [Example 46, N-[2-({4-[3-(2,5-difluorophenyl)-1H-pyrrolo[3,2-b]pyridin-2-yl]pyridin-3-yl}oxy)ethyl]-N-methylprop-2-enamide] the IC50 [1] was 60.5 nM, the IC50 [2] was 27.3 nM and the IC50 ([3]; Mus musculus, BaF3, 48 h) was 1150 nM.
With `C=CC(=O)N1CCC[C@H]1COc1cnccc1-c1[nH]c2cccnc2c1-c1ccc2ccsc2c1` [Example 81, 1-{(2S)-2-[({4-[3-(1-benzothiophen-6-yl)-1H-pyrrolo[3,2-b]pyridin-2-yl]pyridin-3-yl}oxy)methyl]pyrrolidin-1-yl}prop-2-en-1-one] the IC50 [1] was 1.29 nM, the IC50 [2] was 0.391 nM and the IC50 ([3]; Mus musculus, BaF3, 48 h) was 57.4 nM.
Work on `C=CC(=O)N1CCC[C@H]1COc1cnccc1-c1[nH]c2cccnc2c1-c1cccc(Cl)c1Cl` [Example 85, 1-{(2S)-2-[({4-[3-(2,3-dichlorophenyl)-1H-pyrrolo[3,2-b]pyridin-2-yl]pyridin-3-yl}oxy)methyl]pyrrolidin-1-yl}prop-2-en-1-one] yielded an IC50 [1] of 3.64 nM, an IC50 [2] of 0.5 nM and an IC50 ([3]; Mus musculus, BaF3, 48 h) of 55.7 nM.
`C=CC(=O)N1C[C@@H](N(C)CCN(C)C)C[C@H]1COc1cnccc1-c1[nH]c2cccnc2c1-c1ccccc1` (single isomer, unassigned) [Example 132] showed an IC50 [1] of 27.5 nM, an IC50 [2] of 9.32 nM and an IC50 ([3]; 48 h) of 184 nM.
Compound `C=CC(=O)N1CCC[C@H]1COc1cnccc1-c1[nH]c2c(C)ccnc2c1-c1ccccc1` [Example 135, 1-[(2S)-2-({[4-(7-methyl-3-phenyl-1H-pyrrolo[3,2-b]pyridin-2-yl)pyridin-3-yl]oxy}methyl)pyrrolidin-1-yl]prop-2-en-1-one] has an IC50 [1] of 1.83 nM, an IC50 [2] of 0.589 nM and an IC50 ([3]; Mus musculus, BaF3, 48 h) of 16.1 nM.
`CN(C)C/C=C\C(=O)N1CCC[C@H]1COc1cnccc1-c1[nH]c2cccnc2c1-c1ccccc1` [Example 98, (2Z)-4-(dimethylamino)-1-[(2S)-2-({[4-(3-phenyl-1H-pyrrolo[3,2-b]pyridin-2-yl)pyridin-3-yl]oxy}methyl)pyrrolidin-1-yl]but-2-en-1-one] showed an IC50 [1] of 59.1 nM, an IC50 [2] of 14.6 nM and an IC50 ([3]; Mus musculus, BaF3, 48 h) of 747 nM.
For `C=CS(=O)(=O)N(C)CCOc1cnccc1-c1[nH]c2cccnc2c1-c1cc(C)cc(F)c1` [Example 65, N-[2-({4-[3-(3-fluoro-5-methylphenyl)-1H-pyrrolo[3,2-b]pyridin-2-yl]pyridin-3-yl}oxy)ethyl]-N-methylethenesulfonamide], the IC50 [1] was 7.22 nM, the IC50 [2] was 2.48 nM and the IC50 ([3]; Mus musculus, BaF3, 48 h) was 267 nM.
Work on `C=CS(=O)(=O)N1CCC[C@H]1COc1cnccc1-c1[nH]c2c(C)ccnc2c1-c1ccccc1` [Example 136, 2-(3-{[(2S)-1-(ethenesulfonyl)pyrrolidin-2-yl]methoxy}pyridin-4-yl)-7-methyl-3-phenyl-1H-pyrrolo[3,2-b]pyridine] yielded an IC50 [1] of 0.706 nM, an IC50 [2] of 0.214 nM and an IC50 ([3]; Mus musculus, BaF3, 48 h) of 8.43 nM.
Compound `C=CC(=O)N1CCOCC1COc1cnccc1-c1[nH]c2cccnc2c1-c1cc(Cl)ccc1F` (stereo not drawn) [Example 151, 1-{3-[({4-[3-(5-chloro-2-fluorophenyl)-1H-pyrrolo[3,2-b]pyridin-2-yl]pyridin-3-yl}oxy)methyl]morpholin-4-yl}prop-2-en-1-one] has an IC50 [1] of 81.1 nM, an IC50 [2] of 11 nM and an IC50 ([3]; Mus musculus, BaF3, 48 h) of 282 nM.
Work on `C=CS(=O)(=O)N(C)CCOc1cnccc1-c1[nH]c2cccnc2c1-c1cc(F)ccc1F` [Example 61, N-[2-({4-[3-(2,5-difluorophenyl)-1H-pyrrolo[3,2-b]pyridin-2-yl]pyridin-3-yl}oxy)ethyl]-N-methylethenesulfonamide] yielded an IC50 [1] of 2.82 nM, an IC50 [2] of 0.872 nM and an IC50 ([3]; Mus musculus, BaF3, 48 h) of 120 nM.
Work on `C=CC(=O)N(C)CCOc1cnccc1-c1[nH]c2cccnc2c1-c1cccc(C(C)C)c1` [Example 55, N-methyl-N-{2-[(4-{3-[3-(propan-2-yl)phenyl]-1H-pyrrolo[3,2-b]pyridin-2-yl}pyridin-3-yl)oxy]ethyl}prop-2-enamide] yielded an IC50 [1] of 598 nM, an IC50 [2] of 118 nM and an IC50 ([3]; Mus musculus, BaF3, 48 h) of 3050 nM.
`C=CC(=O)N1CCC[C@H]1COc1cnccc1-c1[nH]c2cccnc2c1-c1ccc(F)c(OC(F)F)c1` [Example 103, 1-[(2S)-2-{[(4-{3-[3-(difluoromethoxy)-4-fluorophenyl]-1H-pyrrolo[3,2-b]pyridin-2-yl}pyridin-3-yl)oxy]methyl}pyrrolidin-1-yl]prop-2-en-1-one] showed an IC50 [1] of 16.9 nM, an IC50 [2] of 3.56 nM and an IC50 ([3]; Mus musculus, BaF3, 48 h) of 650 nM.
Compound `C=CC(=O)N1CCC[C@H]1COc1cnccc1-c1[nH]c2cccnc2c1-c1ccc2cccnc2c1` [Example 79, 1-{(2S)-2-[({4-[3-(quinolin-7-yl)-1H-pyrrolo[3,2-b]pyridin-2-yl]pyridin-3-yl}oxy)methyl]pyrrolidin-1-yl}prop-2-en-1-one] has an IC50 [1] of 9.38 nM, an IC50 [2] of 4.41 nM and an IC50 ([3]; Mus musculus, BaF3, 48 h) of 367 nM.
With `C=CC(=O)N(C)CCOc1cnccc1-c1[nH]c2cccnc2c1-c1cccc(OC(F)(F)F)c1` [Example 58, N-methyl-N-{2-[(4-{3-[3-(trifluoromethoxy)phenyl]-1H-pyrrolo[3,2-b]pyridin-2-yl}pyridin-3-yl)oxy]ethyl}prop-2-enamide] the IC50 [1] was 1160 nM, the IC50 [2] was 249 nM and the IC50 ([3]; Mus musculus, BaF3, 48 h) was 6280 nM.
`C=CS(=O)(=O)N(C)C[C@H](C)Oc1cnccc1-c1[nH]c2cccnc2c1-c1ccccc1` (stereo in doubt) [Example 134, N-methyl-N—[-2-{[4-(3-phenyl-1H-pyrrolo[3,2-b]pyridin-2-yl)pyridin-3-yl]oxy}propyl]ethenesulfonamide] showed an IC50 [1] of 101 nM, an IC50 [2] of 22 nM and an IC50 ([3]; Mus musculus, BaF3, 48 h) of 622 nM.

— patent US20260035365A1, “1H-PYRROLO[3,2-B]PYRIDINE DERIVATIVES AS IRREVERSIBLE INHIBITORS OF MUTANT EGFR FOR THE TREATMENT OF CANCER” (Bayer Aktiengesellschaft, priority 2022, published 2026)
